# Test results reported in ChEMBL document CHEMBL1201862, “PubChem BioAssay data set” (2004).
#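 Exposure lasted 48 hours, with cells grown in 96-well plates and compounds tested at five concentrations. At the GI50, growth is halved.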 The source made the active and inactive calls. Rule as the data show it: active = GI50 up to about 1.1 µM and inactive = higher.
# What was measured:
# Test in all cases: DTP human tumour cell line panel, 48 h
# [1] = system: Malme-3M
# [2] = system: CAKI-1
# [3] = system: SNB-19
# [4] = system: ACHN
# [5] = system: COLO 205
# [6] = system: SF-268
# [7] = system: MDA-MB-231
# [8] = system: HOP-62
# [9] = system: LOX IMVI
# [10] = system: EKVX
# [11] = system: A549
# [12] = system: TK-10
# [13] = system: SN12C
# [14] = system: HL-60
# [15] = system: SK-OV-3
# [16] = system: SK-MEL-28
# [17] = system: SK-MEL-5
# [18] = system: HOP-92
# [19] = system: SW-620
# [20] = system: U-251
# [21] = system: RXF 393
# [22] = system: A498
# [23] = system: OVCAR-4
# [24] = system: MOLT-4
# [25] = system: Hs-578T
# [26] = system: M14
# [27] = system: CCRF-CEM
# [28] = system: 786-0
# [29] = system: BT-549
# [30] = system: HCT-15
# [31] = system: UACC-257
# [32] = system: UACC-62
# [33] = system: MDA-MB-435
# [34] = system: MCF7
# [35] = system: HCT-116
# [36] = system: HT-29
# [37] = system: OVCAR-5
# [38] = system: SF-539
# [39] = system: RPMI-8226
# [40] = system: SK-MEL-2
# [41] = system: DU-145
# [42] = system: KM12
# [43] = system: PC-3
# [44] = system: NCI-H522
# [45] = system: NCI-H460
# [46] = system: NCI-H23
# [47] = system: IGROV-1
# [48] = system: OVCAR-3
# [49] = system: OVCAR-8
# [50] = system: SF-295
# [51] = system: T47D
# [52] = system: NCI/ADR-RES
# [53] = system: K562
# [54] = system: UO-31
# [55] = system: NCI-H226
# [56] = system: SR
# [57] = system: HCC 2998
# [58] = system: SNB-75
compound,measurement,setting,value
O=C1NCN(c2ccccc2)C12CCN(CCc1ccc3[nH]c(=S)[nH]c3c1)CC2,GI50,[1],15.6 µM (inactive)
same,GI50,[2],> 100 µM (inactive)
same,GI50,[3],43.5 µM (inactive)
same,GI50,[4],> 100 µM (inactive)
same,GI50,[5],16.3 µM (inactive)
same,GI50,[6],56.9 µM (inactive)
same,GI50,[7],19.5 µM (inactive)
same,GI50,[8],> 100 µM (inactive)
same,GI50,[9],18.5 µM (inactive)
same,GI50,[10],88.5 µM (inactive)
same,GI50,[11],66.5 µM (inactive)
same,GI50,[12],24.7 µM (inactive)
same,GI50,[13],36.1 µM (inactive)
same,GI50,[14],29.1 µM (inactive)
same,GI50,[15],> 100 µM (inactive)
same,GI50,[16],4.12 µM (inactive)
same,GI50,[17],17.5 µM (inactive)
same,GI50,[18],13.9 µM (inactive)
same,GI50,[19],11.9 µM (inactive)
same,GI50,[20],29.4 µM (inactive)
same,GI50,[21],13 µM (inactive)
same,GI50,[22],53.6 µM (inactive)
same,GI50,[23],> 100 µM (inactive)
same,GI50,[24],41.4 µM (inactive)
same,GI50,[25],> 100 µM (inactive)
same,GI50,[26],19.6 µM (inactive)
same,GI50,[27],3.15 µM (inactive)
same,GI50,[28],33.5 µM (inactive)
same,GI50,[29],30.5 µM (inactive)
same,GI50,[30],> 100 µM
same,GI50,[31],0.075 µM (active)
same,GI50,[32],64.9 µM (inactive)
same,GI50,[33],17.3 µM (inactive)
same,GI50,[34],28.5 µM (inactive)
same,GI50,[35],43 µM (inactive)
same,GI50,[36],29.3 µM (inactive)
same,GI50,[37],> 100 µM (inactive)
same,GI50,[38],22.1 µM (inactive)
same,GI50,[39],22.3 µM (inactive)
same,GI50,[40],20.7 µM (inactive)
same,GI50,[41],39.7 µM (inactive)
same,GI50,[42],27.9 µM (inactive)
same,GI50,[43],24.3 µM (inactive)
same,GI50,[44],43.4 µM (inactive)
same,GI50,[45],31.8 µM (inactive)
same,GI50,[46],65.9 µM (inactive)
same,GI50,[47],37.6 µM (inactive)
same,GI50,[48],48 µM (inactive)
same,GI50,[49],51.9 µM (inactive)
same,GI50,[50],51.3 µM (inactive)
same,GI50,[51],16.4 µM (inactive)
same,GI50,[52],> 100 µM (inactive)
Cc1cc(NCC2CC/C(=C\C=C\c3ccccc3)C2=O)no1 (configuration not stated),GI50,[1],> 100 µM (inactive)
same,GI50,[2],> 100 µM (inactive)
same,GI50,[3],> 100 µM (inactive)
same,GI50,[4],93.8 µM (inactive)
same,GI50,[5],> 100 µM (inactive)
same,GI50,[6],> 100 µM (inactive)
same,GI50,[7],98.4 µM (inactive)
same,GI50,[8],> 100 µM (inactive)
same,GI50,[9],> 100 µM (inactive)
same,GI50,[10],> 100 µM (inactive)
same,GI50,[11],> 100 µM (inactive)
same,GI50,[12],84.9 µM (inactive)
same,GI50,[13],> 100 µM (inactive)
same,GI50,[14],42.7 µM (inactive)
same,GI50,[15],> 100 µM (inactive)
same,GI50,[16],> 100 µM (inactive)
same,GI50,[17],94.4 µM (inactive)
same,GI50,[18],78.5 µM (inactive)
same,GI50,[19],> 100 µM (inactive)
same,GI50,[20],40.2 µM (inactive)
same,GI50,[21],> 100 µM (inactive)
same,GI50,[22],51.8 µM (inactive)
same,GI50,[23],> 100 µM (inactive)
same,GI50,[24],49.3 µM (inactive)
same,GI50,[53],92.7 µM (inactive)
same,GI50,[25],85.1 µM (inactive)
same,GI50,[26],> 100 µM (inactive)
same,GI50,[27],> 100 µM (inactive)
same,GI50,[28],> 100 µM (inactive)
same,GI50,[54],51.3 µM (inactive)
same,GI50,[29],> 100 µM (inactive)
same,GI50,[30],67.3 µM
same,GI50,[31],57.8 µM (inactive)
same,GI50,[32],32.1 µM (inactive)
same,GI50,[33],> 100 µM (inactive)
same,GI50,[34],63.4 µM (inactive)
same,GI50,[35],> 100 µM (inactive)
same,GI50,[36],> 100 µM (inactive)
same,GI50,[37],> 100 µM (inactive)
same,GI50,[38],> 100 µM (inactive)
same,GI50,[55],49.8 µM (inactive)
same,GI50,[39],19.5 µM (inactive)
same,GI50,[41],> 100 µM (inactive)
same,GI50,[42],41.8 µM (inactive)
same,GI50,[56],36.9 µM (inactive)
same,GI50,[57],> 100 µM (inactive)
same,GI50,[43],> 100 µM (inactive)
same,GI50,[44],> 100 µM (inactive)
same,GI50,[45],> 100 µM (inactive)
same,GI50,[46],> 100 µM (inactive)
same,GI50,[47],> 100 µM (inactive)
same,GI50,[48],> 100 µM (inactive)
same,GI50,[49],> 100 µM (inactive)
same,GI50,[50],40.8 µM (inactive)
same,GI50,[51],> 100 µM (inactive)
same,GI50,[52],40.5 µM (inactive)
COc1ccc2c(c1)c1c(n2CCN2CCCCC2)-c2ccccc2CC1,GI50,[1],14.6 µM (inactive)
same,GI50,[2],11.8 µM (inactive)
same,GI50,[3],16.6 µM (inactive)
same,GI50,[4],17.2 µM (inactive)
same,GI50,[5],13.6 µM (inactive)
same,GI50,[6],13.8 µM (inactive)
same,GI50,[7],16.4 µM (inactive)
same,GI50,[8],18.6 µM (inactive)
same,GI50,[9],21.3 µM (inactive)
same,GI50,[10],17.9 µM (inactive)
same,GI50,[11],16.4 µM (inactive)
same,GI50,[12],14 µM (inactive)
same,GI50,[13],16.9 µM (inactive)
same,GI50,[15],19.7 µM (inactive)
same,GI50,[16],17.9 µM (inactive)
same,GI50,[17],15.9 µM (inactive)
same,GI50,[18],15.8 µM (inactive)
same,GI50,[19],17.4 µM (inactive)
same,GI50,[20],14.4 µM (inactive)
same,GI50,[23],16.6 µM (inactive)
same,GI50,[24],14.6 µM (inactive)
same,GI50,[53],8.99 µM (inactive)
same,GI50,[25],13.5 µM (inactive)
same,GI50,[26],14.7 µM (inactive)
same,GI50,[27],14 µM (inactive)
same,GI50,[28],18.6 µM (inactive)
same,GI50,[54],13.3 µM (inactive)
same,GI50,[29],23.1 µM (inactive)
same,GI50,[30],11.5 µM
same,GI50,[31],17.9 µM (inactive)
same,GI50,[33],17.5 µM (inactive)
same,GI50,[34],14.3 µM (inactive)
same,GI50,[58],14.6 µM (inactive)
same,GI50,[35],16.2 µM (inactive)
same,GI50,[36],4.48 µM (inactive)
same,GI50,[37],16.9 µM (inactive)
same,GI50,[38],13.6 µM (inactive)
same,GI50,[55],5.2 µM (inactive)
same,GI50,[39],14.7 µM (inactive)
same,GI50,[40],15.2 µM (inactive)
same,GI50,[41],32.1 µM (inactive)
same,GI50,[42],14 µM (inactive)
same,GI50,[56],11.4 µM (inactive)
same,GI50,[57],6.78 µM (inactive)
same,GI50,[43],13.6 µM (inactive)
same,GI50,[44],8.97 µM (inactive)
same,GI50,[45],14.5 µM (inactive)
same,GI50,[46],17.7 µM (inactive)
same,GI50,[47],11.6 µM (inactive)
same,GI50,[48],18.3 µM (inactive)
same,GI50,[49],14.9 µM (inactive)
same,GI50,[50],14.8 µM (inactive)
same,GI50,[51],15.1 µM (inactive)
same,GI50,[52],16.7 µM (inactive)
